Results on three compounds are retold here after ChEMBL document CHEMBL5104103 (J Med Chem, 2022).

In general, Cmax refers to the highest concentration seen after dosing. For orientation: AUC means concentration integrated over time. One may read the IC50 as the concentration needed to halve the response being measured. Usually solubility stands for the concentration that dissolves in the medium under given conditions. Low readings indicate a poorly soluble substance, high ones a readily soluble substance. As usually defined, the bioavailability is dose-corrected exposure relative to a reference, in per cent. A lower bioavailability goes with little systemic uptake.

Series [1] is described as follows: Oral bioavailability in rat at 20 mg/kg. It counts as ADME, organism-based. The conditions noted are these: in vivo.
A short description of series [2]: Cmax in rat at 20 mg/kg, po or 2 mg/kg, iv. The format is ADME, organism-based. Also noted: dose 20 mg/kg, route po. The note with it: in vivo.
Series [3] can be described thus: AUC in rat at 20 mg/kg, po or 2 mg/kg, iv. It counts as ADME, organism-based. The arrangement: dose 20 mg/kg, route po. The note with it: in vivo.
Series [4] is described as follows: Inhibition of anti-IgM-stimulated CD20+ B cell activation in human whole blood assessed as measuring CD69 expression level pretreated for 1 hr followed by anti-IgM stimulation measured after 18 hrs by flow cytometry.
The target of series [5] is Tyrosine-protein kinase Blk (Homo sapiens, UniProt P51451). The series is described as follows: Inhibition of BLK (unknown origin) using peptide substrate in presence of ATP by caliper electrophoresis method.
In series [6] the target is T1, Cytoplasmic tyrosine-protein kinase BMX (Homo sapiens, UniProt P51813).
T1 sequence (P51813 whole entry): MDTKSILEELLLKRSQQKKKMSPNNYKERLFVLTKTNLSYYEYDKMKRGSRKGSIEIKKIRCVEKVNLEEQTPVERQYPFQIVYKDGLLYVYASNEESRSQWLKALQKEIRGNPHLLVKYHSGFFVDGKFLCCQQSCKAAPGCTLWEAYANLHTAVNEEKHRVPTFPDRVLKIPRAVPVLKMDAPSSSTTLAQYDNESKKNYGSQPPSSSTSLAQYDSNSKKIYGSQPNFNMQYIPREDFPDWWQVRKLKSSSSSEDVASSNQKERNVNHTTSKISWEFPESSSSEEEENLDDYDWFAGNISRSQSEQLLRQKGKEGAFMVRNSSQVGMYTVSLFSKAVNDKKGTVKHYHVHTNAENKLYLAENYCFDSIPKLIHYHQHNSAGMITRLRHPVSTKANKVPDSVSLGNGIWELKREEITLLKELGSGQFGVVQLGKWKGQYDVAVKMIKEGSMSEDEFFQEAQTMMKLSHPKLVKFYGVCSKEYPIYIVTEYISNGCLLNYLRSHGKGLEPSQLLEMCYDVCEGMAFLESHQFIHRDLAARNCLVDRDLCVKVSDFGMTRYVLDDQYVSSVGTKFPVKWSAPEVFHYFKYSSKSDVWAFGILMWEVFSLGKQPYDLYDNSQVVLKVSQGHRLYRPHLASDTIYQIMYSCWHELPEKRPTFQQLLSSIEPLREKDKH
The series is described as follows: Inhibition of BMX (unknown origin) using peptide substrate in presence of ATP by caliper electrophoresis method.

Series [7] has as its target Epidermal growth factor receptor (Homo sapiens, UniProt P00533). The series is described as follows: Inhibition of EGFR (unknown origin) using peptide substrate in presence of ATP by caliper electrophoresis method.
In series [8] the target is Receptor tyrosine-protein kinase erbB-2 (Homo sapiens, UniProt P04626). Description: Inhibition of ERBB2 (unknown origin) using peptide substrate in presence of ATP by caliper electrophoresis method.
In series [9] the target is Receptor tyrosine-protein kinase erbB-4 (Homo sapiens, UniProt Q15303). The series is described as follows: Inhibition of ERBB4 (unknown origin) using peptide substrate in presence of ATP by caliper electrophoresis method.
The target in series [10] is T2, Tyrosine-protein kinase Tec (Homo sapiens, UniProt P42680).
T2 sequence (P42680 whole entry): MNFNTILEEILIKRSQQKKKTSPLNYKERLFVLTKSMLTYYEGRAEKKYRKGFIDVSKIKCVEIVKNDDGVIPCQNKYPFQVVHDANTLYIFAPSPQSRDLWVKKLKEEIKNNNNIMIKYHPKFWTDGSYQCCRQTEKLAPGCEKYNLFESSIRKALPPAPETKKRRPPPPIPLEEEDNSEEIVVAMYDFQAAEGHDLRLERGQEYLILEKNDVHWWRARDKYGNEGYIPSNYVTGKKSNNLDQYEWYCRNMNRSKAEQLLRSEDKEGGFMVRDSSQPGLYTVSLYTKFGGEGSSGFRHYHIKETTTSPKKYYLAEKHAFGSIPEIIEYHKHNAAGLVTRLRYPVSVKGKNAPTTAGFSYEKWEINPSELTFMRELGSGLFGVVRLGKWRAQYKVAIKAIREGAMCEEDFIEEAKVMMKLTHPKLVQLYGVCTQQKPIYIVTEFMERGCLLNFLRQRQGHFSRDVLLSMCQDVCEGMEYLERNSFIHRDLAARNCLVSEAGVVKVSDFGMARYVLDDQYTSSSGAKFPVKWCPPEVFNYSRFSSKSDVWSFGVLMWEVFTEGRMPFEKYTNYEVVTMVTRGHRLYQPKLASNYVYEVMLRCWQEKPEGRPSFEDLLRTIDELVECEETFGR
Description: Inhibition of TEC (unknown origin) using peptide substrate in presence of ATP by caliper electrophoresis method.

The target of series [11] is T3, Tyrosine-protein kinase TXK (Homo sapiens, UniProt P42681).
T3 sequence (P42681 whole entry): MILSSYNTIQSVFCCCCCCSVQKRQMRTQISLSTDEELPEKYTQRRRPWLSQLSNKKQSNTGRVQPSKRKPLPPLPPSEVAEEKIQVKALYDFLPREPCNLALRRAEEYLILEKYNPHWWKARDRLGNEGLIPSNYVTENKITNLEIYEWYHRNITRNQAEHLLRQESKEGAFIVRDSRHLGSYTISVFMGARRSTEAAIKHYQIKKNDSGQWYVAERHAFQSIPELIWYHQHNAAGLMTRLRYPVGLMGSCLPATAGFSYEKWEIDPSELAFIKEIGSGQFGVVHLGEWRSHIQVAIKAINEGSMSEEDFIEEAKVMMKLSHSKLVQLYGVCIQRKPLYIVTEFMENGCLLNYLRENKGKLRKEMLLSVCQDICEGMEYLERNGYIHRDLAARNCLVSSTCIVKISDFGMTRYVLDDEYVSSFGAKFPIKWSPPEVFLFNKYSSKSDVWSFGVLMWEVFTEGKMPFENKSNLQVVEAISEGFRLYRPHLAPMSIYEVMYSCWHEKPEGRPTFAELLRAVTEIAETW
Description: Inhibition of RLK (unknown origin) using peptide substrate in presence of ATP by caliper electrophoresis method.

Series [12] in a line: Permeability across apical to basolateral membrane in human Caco-2 cells. The conditions noted are these: read-out: permeability. It counts as ADME, cell-based. In general terms: Passage across Caco-2 layers is used to estimate intestinal permeability.
Series [13] can be described thus: Permeability across basolateral to apical membrane in human Caco-2 cells. The format is ADME, cell-based. The note with it: read-out: permeability.
The nature of series [14]: Solubility of compound in PBS at pH 7 by LCMS/MS analysis. The format is physicochemical.
A short description of series [15]: Clearance in human liver S9 fraction assessed as measuring per mg protein by LCMS/MS analysis. The format is ADME, subcellular. The note with it: read-out: CLH.

Values after ≈ are worked out from the molar mass of the structure shown.

Chain of Receptor tyrosine-protein kinase erbB-4 (Q15303 whole entry): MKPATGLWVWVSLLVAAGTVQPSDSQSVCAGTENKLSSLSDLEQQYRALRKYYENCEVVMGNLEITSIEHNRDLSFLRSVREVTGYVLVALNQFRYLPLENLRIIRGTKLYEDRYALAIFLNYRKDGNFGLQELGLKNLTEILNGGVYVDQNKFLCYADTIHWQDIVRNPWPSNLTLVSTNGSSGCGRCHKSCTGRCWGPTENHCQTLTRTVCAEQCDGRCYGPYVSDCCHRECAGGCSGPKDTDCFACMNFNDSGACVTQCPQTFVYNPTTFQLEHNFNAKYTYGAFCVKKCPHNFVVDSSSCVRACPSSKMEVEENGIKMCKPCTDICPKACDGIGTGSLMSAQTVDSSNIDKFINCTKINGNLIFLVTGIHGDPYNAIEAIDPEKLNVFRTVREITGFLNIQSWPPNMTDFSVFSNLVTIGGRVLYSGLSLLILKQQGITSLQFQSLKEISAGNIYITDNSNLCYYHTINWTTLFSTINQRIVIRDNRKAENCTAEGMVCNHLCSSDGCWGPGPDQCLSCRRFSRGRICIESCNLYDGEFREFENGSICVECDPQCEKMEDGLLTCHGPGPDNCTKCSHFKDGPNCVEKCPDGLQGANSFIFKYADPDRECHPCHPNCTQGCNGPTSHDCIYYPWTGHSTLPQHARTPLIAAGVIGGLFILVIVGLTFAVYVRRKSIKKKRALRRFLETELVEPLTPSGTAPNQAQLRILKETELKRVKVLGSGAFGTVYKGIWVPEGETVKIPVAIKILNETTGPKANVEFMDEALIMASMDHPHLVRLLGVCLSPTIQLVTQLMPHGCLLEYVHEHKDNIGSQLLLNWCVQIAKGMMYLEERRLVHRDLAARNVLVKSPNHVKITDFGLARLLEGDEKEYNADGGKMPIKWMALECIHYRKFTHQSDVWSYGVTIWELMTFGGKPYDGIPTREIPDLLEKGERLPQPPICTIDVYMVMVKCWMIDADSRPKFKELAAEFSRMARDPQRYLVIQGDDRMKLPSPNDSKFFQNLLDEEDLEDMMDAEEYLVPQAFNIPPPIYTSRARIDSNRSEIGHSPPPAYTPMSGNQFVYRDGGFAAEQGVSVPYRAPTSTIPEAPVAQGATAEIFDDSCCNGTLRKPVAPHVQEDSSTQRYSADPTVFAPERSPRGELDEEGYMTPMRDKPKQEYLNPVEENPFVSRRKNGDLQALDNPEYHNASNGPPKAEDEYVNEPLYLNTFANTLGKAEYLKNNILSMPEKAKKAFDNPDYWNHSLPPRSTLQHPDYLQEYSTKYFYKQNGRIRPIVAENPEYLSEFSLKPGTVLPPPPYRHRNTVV
Chain of Receptor tyrosine-protein kinase erbB-2 (P04626 whole entry): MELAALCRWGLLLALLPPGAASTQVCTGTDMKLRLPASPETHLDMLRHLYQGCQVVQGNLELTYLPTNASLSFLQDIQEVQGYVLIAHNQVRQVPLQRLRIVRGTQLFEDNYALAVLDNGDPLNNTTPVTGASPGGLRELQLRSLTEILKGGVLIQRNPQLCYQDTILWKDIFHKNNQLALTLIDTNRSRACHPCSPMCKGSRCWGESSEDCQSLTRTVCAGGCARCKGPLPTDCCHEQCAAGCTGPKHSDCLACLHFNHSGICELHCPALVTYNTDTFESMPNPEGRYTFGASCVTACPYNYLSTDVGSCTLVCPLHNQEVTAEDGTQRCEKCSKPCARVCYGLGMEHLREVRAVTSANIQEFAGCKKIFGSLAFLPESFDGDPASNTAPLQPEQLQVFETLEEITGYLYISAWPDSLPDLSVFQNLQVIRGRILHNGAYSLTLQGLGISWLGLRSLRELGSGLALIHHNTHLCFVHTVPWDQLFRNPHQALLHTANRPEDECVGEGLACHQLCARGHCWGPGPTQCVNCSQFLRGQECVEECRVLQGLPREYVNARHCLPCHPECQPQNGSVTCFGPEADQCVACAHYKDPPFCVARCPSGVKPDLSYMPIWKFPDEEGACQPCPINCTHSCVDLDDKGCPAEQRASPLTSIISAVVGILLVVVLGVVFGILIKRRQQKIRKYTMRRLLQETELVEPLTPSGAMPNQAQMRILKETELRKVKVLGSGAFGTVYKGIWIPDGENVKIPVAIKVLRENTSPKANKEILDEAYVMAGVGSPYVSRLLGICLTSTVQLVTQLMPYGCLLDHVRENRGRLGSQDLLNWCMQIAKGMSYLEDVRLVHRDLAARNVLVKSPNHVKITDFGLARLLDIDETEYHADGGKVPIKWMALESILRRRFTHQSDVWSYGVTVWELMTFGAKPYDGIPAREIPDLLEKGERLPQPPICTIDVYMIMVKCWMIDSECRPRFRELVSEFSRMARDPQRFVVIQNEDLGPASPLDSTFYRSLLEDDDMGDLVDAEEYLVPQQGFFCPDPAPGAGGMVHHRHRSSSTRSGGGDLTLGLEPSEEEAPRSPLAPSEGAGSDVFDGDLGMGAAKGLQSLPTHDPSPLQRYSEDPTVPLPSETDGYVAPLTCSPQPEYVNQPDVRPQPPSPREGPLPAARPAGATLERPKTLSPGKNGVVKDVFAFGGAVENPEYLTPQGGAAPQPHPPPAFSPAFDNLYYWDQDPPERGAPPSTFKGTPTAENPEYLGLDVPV
Chain of Tyrosine-protein kinase Blk (P51451 whole entry): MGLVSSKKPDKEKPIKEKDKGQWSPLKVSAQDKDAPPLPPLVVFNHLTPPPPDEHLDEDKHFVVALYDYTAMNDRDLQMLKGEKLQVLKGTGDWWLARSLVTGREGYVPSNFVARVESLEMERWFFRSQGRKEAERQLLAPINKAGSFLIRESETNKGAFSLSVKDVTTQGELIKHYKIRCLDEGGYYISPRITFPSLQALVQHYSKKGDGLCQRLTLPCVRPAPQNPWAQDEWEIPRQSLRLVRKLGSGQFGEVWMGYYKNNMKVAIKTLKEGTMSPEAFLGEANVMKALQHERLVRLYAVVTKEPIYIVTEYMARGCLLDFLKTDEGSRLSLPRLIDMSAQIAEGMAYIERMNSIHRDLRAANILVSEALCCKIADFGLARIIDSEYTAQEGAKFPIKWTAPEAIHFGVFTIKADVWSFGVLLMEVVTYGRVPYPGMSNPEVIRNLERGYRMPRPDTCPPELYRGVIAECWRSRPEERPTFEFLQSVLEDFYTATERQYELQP
Chain of Epidermal growth factor receptor (P00533 whole entry): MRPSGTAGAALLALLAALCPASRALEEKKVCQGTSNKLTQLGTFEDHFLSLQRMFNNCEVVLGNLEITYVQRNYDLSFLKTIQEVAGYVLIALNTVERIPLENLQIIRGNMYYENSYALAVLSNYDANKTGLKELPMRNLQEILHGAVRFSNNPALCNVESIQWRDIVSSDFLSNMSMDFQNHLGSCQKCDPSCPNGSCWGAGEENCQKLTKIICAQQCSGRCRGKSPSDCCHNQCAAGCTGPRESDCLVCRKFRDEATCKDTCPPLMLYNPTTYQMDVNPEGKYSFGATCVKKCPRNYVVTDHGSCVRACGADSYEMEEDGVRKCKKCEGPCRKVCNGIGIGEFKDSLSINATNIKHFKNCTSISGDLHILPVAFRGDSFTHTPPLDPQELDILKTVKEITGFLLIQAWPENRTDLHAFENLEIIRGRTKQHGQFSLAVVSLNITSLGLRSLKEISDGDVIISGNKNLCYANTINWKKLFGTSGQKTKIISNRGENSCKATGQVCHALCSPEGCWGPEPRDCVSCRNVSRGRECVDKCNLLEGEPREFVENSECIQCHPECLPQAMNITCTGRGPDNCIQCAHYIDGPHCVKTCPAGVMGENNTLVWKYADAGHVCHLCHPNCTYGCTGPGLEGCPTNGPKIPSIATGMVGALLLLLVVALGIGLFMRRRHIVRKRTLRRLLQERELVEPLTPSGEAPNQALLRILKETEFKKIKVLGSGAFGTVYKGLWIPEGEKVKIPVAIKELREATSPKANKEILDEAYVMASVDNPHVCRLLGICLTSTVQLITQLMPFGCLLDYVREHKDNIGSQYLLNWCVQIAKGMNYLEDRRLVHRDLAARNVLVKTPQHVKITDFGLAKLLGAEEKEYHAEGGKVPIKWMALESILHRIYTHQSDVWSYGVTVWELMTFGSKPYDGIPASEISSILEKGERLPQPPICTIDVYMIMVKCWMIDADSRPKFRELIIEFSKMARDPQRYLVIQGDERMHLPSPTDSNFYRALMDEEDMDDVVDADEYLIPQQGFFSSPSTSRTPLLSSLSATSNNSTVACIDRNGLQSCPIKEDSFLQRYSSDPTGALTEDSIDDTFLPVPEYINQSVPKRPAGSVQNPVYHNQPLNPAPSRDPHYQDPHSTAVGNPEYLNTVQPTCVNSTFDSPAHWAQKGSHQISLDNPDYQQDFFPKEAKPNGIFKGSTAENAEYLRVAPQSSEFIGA

`CC(C)(C)/C=C(\C#N)C(=O)N1CCC[C@@H](n2nc(-c3ccc(Oc4ccccc4)cc3F)c3c(N)ncnc32)C1` [ATUZABRUTINIB] came in with a F in series [1] (po, 20 mg/kg) of 21.1%. In [2], this compound yielded a Cmax of 326 ng/mL. Moreover, the AUC in [3] stood at 1071 ng·h/mL. Moreover, the IC50 is 216 nM in series [4]; 2.2 nM in series [5]; 1.8 nM in [6]; 368 nM in [7]; 1080 nM in series [8]; 22 nM in series [9]. Also, the IC50 came out at 1.9 nM in series [10] and 3.4 nM in series [11]. For the same compound, the Papp A→B in series [12] amounted to 0.5 ×10⁻⁶ cm/s. Besides, in [13], the Papp B→A came to 0.6 ×10⁻⁶ cm/s. In addition, the solubility in series [14] was 2.1 µM (≈ 1.13 µg/mL). Further, the microsomal CLint in series [15] stood at 77 µL/min/mg.

`CC(C)(/C=C(/C#N)C(=O)N1CCC[C@@H]1Cn1nc(-c2ccc(Oc3ccccc3)cc2F)c2c(N)ncnc21)N1CCOCC1` yielded a bioavailability in [1] of 17.3%. The compound also registered a Cmax in series [2] of 406 ng/mL. The AUC in series [3] (read-out: AUC) worked out at 478 ng·h/mL. Further, the IC50 is 149 nM in series [4]; 92 nM in series [5]; 10.1 nM in [6]; 3000 nM in series [7]; greater than 5000 nM in series [8]; 177 nM in series [9]. The IC50 in series [10] worked out at 4.5 nM; in [11], 44.8 nM. In addition, the Papp A→B in [12] came to 6.8 ×10⁻⁶ cm/s. In addition, the Papp B→A in series [13] is 16.5 ×10⁻⁶ cm/s. In series [14], this compound displayed a solubility of 215 µM (≈ 131 µg/mL). The microsomal CLint in series [15] amounted to 152 µL/min/mg.

`CN1CCN(C(C)(C)/C=C(\C#N)C(=O)N2CCC[C@@H](n3nc(-c4ccc(Oc5ccccc5)cc4F)c4c(N)ncnc43)C2)CC1`: in [1], the bioavailability was found to be 20.2%. The Cmax in series [2] turned out to be 96.5 ng/mL. The AUC in series [3] (read-out: AUC) was determined as 568 ng·h/mL. In addition, the IC50 in series [4] worked out at 117 nM; in series [5] it was 0.5 nM; in series [6], 0.6 nM; in series [7] it was 980 nM; in series [8] it was 4350 nM; in [9], 41 nM. The IC50 turned out to be 0.5 nM in [10] and 1.2 nM in [11]. Further, the Papp A→B in series [12] amounted to 1 ×10⁻⁶ cm/s. Moreover, the Papp B→A in series [13] is 13.5 ×10⁻⁶ cm/s. Also, the solubility in [14] is 315 µM (≈ 196 µg/mL). For the same compound, in series [15], the microsomal CLint came to 30 µL/min/mg.
